Reference: US20210369640A1, “COMPOSITION CONTAINING SESQUITERPENE DERIVATIVE AS ACTIVE INGREDIENT FOR PREVENTION OR TREATMENT OF MUSCLE DISEASES” (INDUSTRY-ACADEMIC COOPERATION FOUNDATION, YONSEI UNIVERSITY, priority 2017, published 2021)

Tests used:
[1] = test system: MaFbx/atrogin1; assay: RT-PCR of MaFbx/atrogin1 gene expression in dexamethasone-treated mouse myoblasts; assay type: cell-based; details: 100 μM, co-treated with dexamethasone; FIG. 3B
Protocol: (§1) A mouse myoblast cell line (C2C12 cells) was purchased from ATCC (Manassas, Va., USA), and the purchased cells were incubated in a 5% CO2 incubator at 37° C. using 10% fetal bovine serum media (Gibco-BRL). When the confluency of the incubated cells became 80%, the myoblasts were allowed to differentiate into myotubes using 2% horse serum media (Gibco-BRL).
(§2) The mouse myoblasts incubated in Preparation Example 1 were co-treated with 50 dexamethasone (dexa; Sigma) and 100 μM of sesquiterpene derivatives (experimental materials) for two days from day 4 of differentiation of the mouse myoblasts.
(§3) An experiment was conducted in the same manner as in Example 1, except for treatment with 50 μM of dexamethasone (dexa; Sigma) instead of the sesquiterpene derivatives (experimental materials).
(§4) 334 μl of a TRIzol solution per 1×10^7 mouse myoblasts of Example 1 was added and replaced, followed by centrifugation at 12,000×g and 4° C. for 10 minutes. The supernatant was transferred to a new tube and then 67 μl of chloroform was added thereto, followed by vortexing. […] The concentration of the extracted RNA samples was measured at wavelengths of 260 nm and 280 nm using a UV/VIS spectrometer (Beckman Coulter, DU730), and was subjected to agarose gel electrophoresis to confirm the integrity of RNA samples. […]

[2] = test system: C57BL/6N mice; assay: Four limb hanging test; assay type: in vivo, mouse; details: 200 mpk orally once a day; for hanging time: FIG. 5A; for hanging time multiplied by body weight: FIG. 5B
Source text: (§5) 32 5-week-old male C57BL/6N mice (Orient, Korea) were adapted to a laboratory environment for one week with a commercial normal diet (rodent chow), and then randomly divided into four groups (chow vehicle group, chow α-cedrene group, HFD vehicle group, and HFD α-cedrene group) according to a randomized block design and bred for a total of 10 weeks.
(§6) While mice bred in Preparation Example 2 were fed a normal diet for 10 weeks, 200 mpk α-cedrene was orally administered to the mice once a day.
(§7) A procedure was carried out in the same manner as in Example 2, except that the mice were fed a high-fat experimental diet (HFD: 40% high fat energy, 17 g lard+3% corn oil/100 g diet).
(§8) A procedure was carried out in the same manner as in Example 2, except that a vehicle was orally administered instead of 200 mpk α-cedrene, while a commercial normal diet (rodent chow) was ingested.
(§9) A procedure was carried out in the same manner as in Comparative Example 2, except that a high-fat diet (HFD: 40% high fat energy) was ingested.
To measure the limb muscle strength of mice, the time that the mice of Examples 2 and 3 and Comparative Examples 2 and 3 hung upside down using their four feet was measured at week 12 of breeding. The time (seconds) that the mice hung upside down in a cage equipped with a wire mesh cover (diameter <0.5 cm) (20×30×50 cm, Jeung-Do Bio & Plant Co., Ltd, Korea) was measured a total of three times, and a rest period of 30 minutes or longer was given between measurements. Experimental results were obtained by multiplying hanging time (sec) by body weight (kg).

[3] = test system: MuRF1; assay: RT-PCR of MuRF1 gene expression in dexamethasone-treated mouse myoblasts; assay type: cell-based; details: 100 μM, co-treated with dexamethasone; FIG. 3B
Protocol: as §1, §2, §3, §4

[4] = test system: mouse myoblast cell line (C2C12 cells); assay: Myotube thickness in dexamethasone-treated mouse myoblasts (Giemsa-Wright staining, ImageJ); assay type: cell-based; details: 100 μM, vs dexamethasone alone; for increase in thickness of myotubes reduced by dexamethasone: co-treated with 50 μM dexamethasone for two days from day 4 of differentiation, quantified using ImageJ
Protocol: A mouse myoblast cell line (C2C12 cells) was purchased from ATCC (Manassas, Va., USA), and the purchased cells were incubated in a 5% CO2 incubator at 37° C. using 10% fetal bovine serum media (Gibco-BRL). When the confluency of the incubated cells became 80%, the myoblasts were allowed to differentiate into myotubes using 2% horse serum media (Gibco-BRL). The mouse myoblasts incubated in Preparation Example 1 were co-treated with 50 dexamethasone (dexa; Sigma) and 100 μM of sesquiterpene derivatives (experimental materials) for two days from day 4 of differentiation of the mouse myoblasts. An experiment was conducted in the same manner as in Example 1, except for treatment with 50 μM of dexamethasone (dexa; Sigma) instead of the sesquiterpene derivatives (experimental materials). […] When the fixing was completed, the myotubes were naturally dried at room temperature for 10 minutes, and then a Giemsa-Wright staining solution (Asan Pharmaceutical, Seoul), which specifically stains myotubes, was dropped onto the myotubes and left for 30 minutes to stain the myotubes. […] Six sections were randomly selected from each well and micrographed, and the thickness of at least […] myotubes from each well was analyzed (three repetitions/group).

[5] = test system: mouse gastrocnemius; assay: H&E staining of muscle tissue, fiber diameter; assay type: in vivo; details: 200 mpk orally once a day, vs vehicle
Source text: as §5, §6, §7, §8, §9
Muscle tissues of mice were extracted, fixed in 10% formalin, and then stained with hematoxylin and eosin (H&E) after requesting Korea CFC (Gyeonggi-do, Korea) to do so, and observed using an optical microscope (IX71, Olympus, JPN) and photographed using a digital camera (DP71, Olympus, JPN).

[6] = test system: p-p70S6K1 protein; assay: Western blotting of p-p70S6K1 in dexamethasone-treated mouse myoblasts; assay type: cell-based; details: 100 μM, co-treated with dexamethasone; FIG. 3A
Protocol: (§10) The mouse myoblasts incubated in Preparation Example 1 were co-treated with 50 dexamethasone (dexa; Sigma) and 100 μM of sesquiterpene derivatives (experimental materials) for two days from day 4 of differentiation of the mouse myoblasts. An experiment was conducted in the same manner as in Example 1, except for treatment with 50 μM of dexamethasone (dexa; Sigma) instead of the sesquiterpene derivatives (experimental materials). To perform western blotting on cells, a lysis buffer containing 500 μL of 100 mM Tris-HCl, pH 7.4, 5 mM EDTA, 50 mM sodium pyrophosphate, 50 mM NaF, 100 mM orthovanadate, 1% Triton X-100, 1 mM phenylmethanesulfonyl fluoride, 2 μg/mL of aprotinin, 1 μg/mL of pepstatin A, and 1 μg/mL of leupeptin was added to each well from which media were removed, the cells were harvested, and then centrifuged at 1,300×g and 4° C. for 20 minutes, and then the middle layer was taken, and the concentrations of proteins were quantified by the Bradford method (Bio-Rad). 40 μg of the quantified proteins were electrophoresed by SDS-polyacrylamide gel, and then the separated proteins were transferred to nitrocellulose membranes (Amersham, Buckinghamshire, UK). […] Bands visualized on the X-ray film were scanned and quantified using Quantity One analysis software (Bio-Rad).

[7] = test system: p-4E-BP1 protein; assay: Western blotting of p-4E-BP1 in dexamethasone-treated mouse myoblasts; assay type: cell-based; details: 100 μM, co-treated with dexamethasone; FIG. 3A
Protocol: as §10

[8] = test system: C57BL/6N mice; assay: Grip strength test; assay type: in vivo, mouse; details: 200 mpk orally once a day, week 12 of breeding
Source text: as §5, §6
A procedure was carried out in the same manner as in Example 2, except that the mice were fed a high-fat experimental diet (HFD: 40% high fat energy, 17 g lard+3% corn oil/100 g diet). […]
The grip strength of the mice of Examples 2 and 3 and Comparative Examples 2 and 3 was measured at week 12 of breeding using a grip strength meter for mice (DJ2-248, Daejong Instrument Industry Co., Ltd., Korea). In particular, a force (N) for mice to hold onto a wire mesh was measured while mounting the four feet of mice on a wire mesh to which a gauge was attached, and pulling the tails of the mice backward. The measurement was successively performed five times, and the maximum value was determined as grip strength. To normalize the experimental results, grip strength (N) divided by body weight […] was calculated.

[9] = high-fat diet, vs HFD vehicle group
[10] = normal diet, vs chow vehicle group

How did the “expression of MaFbx/atrogin1” value [1] turn out when `CC1=CC[C@@]23C[C@@H]1C(C)(C)C2CC[C@H]3C` (stereo partly drawn) [cedrene, α-cedrene] was run?
The value was “significantly reduced”.

What about the hanging time [2, 9] of the same compound?
The hanging time was “significantly increased”.

And the “hanging time multiplied by body weight” value [2, 9]?
The value was “significantly increased”.

And the hanging time [2, 10]?
Its hanging time is “significantly increased”.

What about the “hanging time multiplied by body weight” value [2, 10] of the same compound?
Its value is “significantly increased”.

What about the “expression of MuRF1” value [3] of the same compound?
Its value is “significantly reduced”.

What about the “increase in thickness of myotubes reduced by dexamethasone” value [4] of the same compound?
Its value is 58%.

And the “thickness of myotubes reduced by dexamethasone (visually confirmed, FIG. 1A)” value ([4]; co-treated with dexamethasone)?
Its value is “increased”.

And the “increase in fiber diameter of the mouse gastrocnemius” value ([5]; CHOW group)?
Its value is 21%.

What about the “increase in fiber diameter of the mouse gastrocnemius” value ([5]; HFD group) of the same compound?
Its value is 27%.

And the “amount of p-p70S6K protein reduced by dexamethasone” value [6]?
Its value is “significantly increased”.

And the “amount of p-4E-BP1 protein reduced by dexamethasone” value [7]?
The value was “significantly increased”.

What about the “increase in grip strength” value [8, 9] of the same compound?
The value was 31%.

What about the “increase in grip strength” value [8, 10] of the same compound?
The value was 26%.

Which “increase in thickness of myotubes reduced by dexamethasone” value [4] does the source give for `CC(=O)O[C@]1(C)CC[C@@]23C[C@@H]1C(C)(C)[C@@H]2CC[C@H]3C` [cedryl acetate] here?
Its value is 51%.

With `C[C@@H]1CC[C@H]2C(C)(C)[C@H]3C[C@@]12CC[C@@]3(C)O` [cedrol] as the compound, how does the “increase in thickness of myotubes reduced by dexamethasone” value [4] read?
Its value is 40%.

For `C=C1CC[C@@]23C[C@@H]1C(C)(C)C2CC[C@H]3C` (stereo partly drawn) [β-cedrene], which “increase in thickness of myotubes reduced by dexamethasone” value [4] is on record?
The value was 36%.

How did the “increase in thickness of myotubes reduced by dexamethasone” value [4] turn out when `CC1=CCC23CC1C(C)(CO)C2CCC3C` (centres unmarked) [cedrenol] was run?
The value was 43%.

With `CC(=O)C1=C(C)[C@@H]2C[C@@]3(C1)[C@H](C)CC[C@H]3C2(C)C` [methyl cedryl ketone] as the compound, how does the “increase in thickness of myotubes reduced by dexamethasone” value [4] read?
The value was 32%.

`C[C@@H]1CC[C@H]2C(C)(C)[C@H]3C[C@@]12CC1OC13C` (some centres unmarked) [cedrene epoxide] was tested. Which “increase in thickness of myotubes reduced by dexamethasone” value [4] did it give?
The value was 38%.
